Laboratory results reported in ChEMBL document CHEMBL4261644, “Novel Symmetrical Benzazolyl Derivatives Endowed with Potent Anti-Heparanase Activity” (J Med Chem, 2018).
Blank lines part the entries; values can stand above or below the molecule they belong to. Calls of active or inactive are those of the source. The rule behind the calls is not given here.

How the values were obtained:
HT-1080 [1] = assay: Antiproliferative activity against human HT1080 cells after 72 hrs by SRB assay; type: cell-based
U-87 MG [2] = assay: Antiproliferative activity against human U87MG cells after 72 hrs by SRB assay; type: cell-based, U-87MG ATCC
U2OS [3] = assay: Antiproliferative activity against human U2OS cells after 72 hrs by SRB assay; type: cell-based
HT-1080 [4] = assay: Anti-invasive activity in human HT1080 cells assessed as reduction in invasive potential at 1 uM after 24 hrs by matrigel invasion assay relative to control; type: functional; conditions: HT-1080, 24 h
U-87 MG [5] = assay: Anti-invasive activity in human U87MG cells assessed as reduction in invasive potential at 1 uM after 24 hrs by matrigel invasion assay relative to control; type: functional, U-87MG ATCC
U2OS [6] = assay: Anti-invasive activity in human U2OS cells assessed as reduction in invasive potential at 1 uM after 24 hrs by matrigel invasion assay relative to control; type: functional
[7] = molecular target: T1, Heparanase (Homo sapiens) (UniProt Q9Y251); assay: Inhibition of HPSE in human HT1080 cells assessed as reduction in FGF1 mRNA expression after 24 hrs by qPCR analysis relative to control; type: cell-based
T1 sequence (whole entry): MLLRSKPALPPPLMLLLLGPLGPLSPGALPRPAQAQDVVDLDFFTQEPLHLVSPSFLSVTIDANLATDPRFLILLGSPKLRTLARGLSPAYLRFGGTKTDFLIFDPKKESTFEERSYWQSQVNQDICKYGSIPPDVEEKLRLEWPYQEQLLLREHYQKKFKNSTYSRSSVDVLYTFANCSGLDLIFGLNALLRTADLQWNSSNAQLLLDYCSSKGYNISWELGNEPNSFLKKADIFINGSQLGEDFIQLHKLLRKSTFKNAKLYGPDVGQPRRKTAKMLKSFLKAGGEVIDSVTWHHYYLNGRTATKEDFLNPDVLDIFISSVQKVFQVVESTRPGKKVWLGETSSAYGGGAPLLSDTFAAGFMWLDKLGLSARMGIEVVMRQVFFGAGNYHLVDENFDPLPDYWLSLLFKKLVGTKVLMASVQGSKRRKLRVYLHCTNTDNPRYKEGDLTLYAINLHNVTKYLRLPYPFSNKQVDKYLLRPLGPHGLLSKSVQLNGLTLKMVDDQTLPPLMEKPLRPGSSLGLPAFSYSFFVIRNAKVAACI

[8] = molecular target: T1, Heparanase (Homo sapiens); assay: Inhibition of HPSE in human HT1080 cells assessed as reduction in FGF2 mRNA expression after 24 hrs by qPCR analysis relative to control; type: cell-based
[9] = molecular target: T1, Heparanase (Homo sapiens); assay: Inhibition of HPSE in human HT1080 cells assessed as reduction in VEGF mRNA expression after 24 hrs by qPCR analysis relative to control; type: cell-based
[10] = molecular target: T1, Heparanase (Homo sapiens); assay: Inhibition of HPSE in human HT1080 cells assessed as reduction in MMP9 mRNA expression after 24 hrs by qPCR analysis relative to control; type: cell-based
[11] = molecular target: T1, Heparanase (Homo sapiens); assay: Inhibition of HPSE in human HT1080 cells assessed as reduction in HPSE mRNA expression after 24 hrs by qPCR analysis relative to control; type: cell-based
Heparanase = molecular target: T2, Heparanase (Homo sapiens, UniProt Q9Y251); assay: Inhibition of recombinant HPSE (unknown origin) using fondaparinux as substrate incubated for 3 hrs in absence of light by WST1 assay
T2 sequence (Q9Y251 whole entry): T1 sequence (whole entry)

HT-1080 [12] = assay: Anti-invasive activity in human HT1080 cells assessed as reduction in invasive potential at 10 uM after 24 hrs by matrigel invasion assay relative to control; type: functional; conditions: HT-1080, 24 h
U-87 MG [13] = assay: Anti-invasive activity in human U87MG cells assessed as reduction in invasive potential at 10 uM after 24 hrs by matrigel invasion assay relative to control; type: functional, U-87MG ATCC
U2OS [14] = assay: Anti-invasive activity in human U2OS cells assessed as reduction in invasive potential at 10 uM after 24 hrs by matrigel invasion assay relative to control; type: functional
HT-1080 [15] = assay: Anti-invasive activity in human HT1080 cells assessed as reduction in invasive potential at […] after 24 hrs by matrigel invasion assay relative to control; type: functional, cell-based

SMILES: O=C(Cc1ccc2oc(-c3ccc(NC(=O)Nc4ccc(-c5nc6cc(CC(=O)NC(Cc7ccccc7)C(=O)O)ccc6o5)cc4F)c(F)c3)nc2c1)NC(Cc1ccccc1)C(=O)O (configuration not stated)
IC50 (Heparanase): 720 nM
IC50 (HT-1080 [1]; ht-1080): Not Active
IC50 (U-87 MG [2]; u-87mg atcc): Not Active
IC50 (U2OS [3]; u2os): Not Active

SMILES: CC(C)CC(NC(=O)Cc1ccc2oc(-c3ccc(NC(=O)Nc4ccc(-c5nc6cc(CC(=O)NC(CC(C)C)B(O)O)ccc6o5)cc4F)c(F)c3)nc2c1)B(O)O (configuration not stated)
IC50 (Heparanase): 4870 nM

SMILES: O=C(O)Cc1cccc(NC(=O)c2ccc(CC(O)Cc3ccc(C(=O)Nc4cccc(CC(=O)O)c4)cc3)cc2)c1
IC50 (Heparanase): > 10000 nM

SMILES: O=C(O)Cc1ccc(O)c(NC(=O)c2ccc(NC(=O)Nc3ccc(C(=O)Nc4cc(CC(=O)O)ccc4O)cc3)cc2)c1
IC50 (Heparanase): 2730 nM

SMILES: O=C(O)Cc1ccc2oc(-c3ccc(NC(=S)Nc4ccc(-c5nc6cc(CC(=O)O)ccc6o5)cc4)cc3)nc2c1
IC50 (Heparanase): 1810 nM

SMILES: O=C(Nc1ccc(C(=O)Nc2cccc(B(O)O)c2)cc1)Nc1ccc(C(=O)Nc2cccc(B(O)O)c2)cc1
IC50 (Heparanase): > 10000 nM

SMILES: O=C(O)Cc1cccc(NC(=O)c2ccc(CC(=O)Cc3ccc(C(=O)Nc4cccc(CC(=O)O)c4)cc3)cc2)c1
IC50 (Heparanase): > 10000 nM

SMILES: Cc1cc2nc(N3CCC(NC(=O)NC4CCN(c5nc6cc(C)c(C)cc6o5)CC4)CC3)oc2cc1C
IC50 (Heparanase): > 10000 nM

SMILES: O=C(Nc1ccc(C(=O)Nc2cccc(C(=O)O)c2)cc1)Nc1ccc(C(=O)Nc2cccc(C(=O)O)c2)cc1
IC50 (Heparanase): 9170 nM

SMILES: Cc1cc2nc(-c3ccc(NC(=O)Nc4ccc(-c5nc6cc(C)c(C)cc6o5)cc4F)c(F)c3)oc2cc1C
IC50 (Heparanase): > 10000 nM

SMILES: O=C(Cc1ccc2oc(-c3ccc(NC(=O)Nc4ccc(-c5nc6cc(CC(=O)NCB(O)O)ccc6o5)cc4F)c(F)c3)nc2c1)NCB(O)O
IC50 (Heparanase): > 10000 nM

The next lines start with results.

IC50 (HT-1080 [1]; Homo sapiens, HT-1080, 72 h, read-out: IC50): 8700 nM
IC50 (U-87 MG [2]; Homo sapiens, U-87 MG, 72 h, read-out: IC50): 2800 nM
IC50 (U2OS [3]; Homo sapiens, U2OS, 72 h, read-out: IC50): 1700 nM
inhibition [7]: Active
inhibition [8]: Active
inhibition [9]: Active
inhibition [10]: Active
inhibition [11]: Active
SMILES: COc1ccc(C(=O)Nc2ccc(CNc3ccc(-c4nc5cc(CC(=O)O)ccc5[nH]4)cc3F)cc2)cc1Br
inhibition at 1 µM (HT-1080 [4]): 50 to 90%
inhibition at 1 µM (U-87 MG [5]): 50 to 90%
inhibition at 1 µM (U2OS [6]): 50 to 90%

IC50 (Heparanase): 990 nM
SMILES: O=C(O)Cc1ccc2[nH]c(-c3ccc(NC(=S)Nc4ccc(-c5nc6cc(CC(=O)O)ccc6[nH]5)cc4F)c(F)c3)nc2c1

IC50 (Heparanase): 80 nM
IC50 (HT-1080 [1]; ht-1080): Not Active
IC50 (U-87 MG [2]; u-87mg atcc): Not Active
IC50 (U2OS [3]; u2os): Not Active
inhibition [7]: < 40%
inhibition [8]: < 40%
inhibition ([9]; concentration not given here): < 40%
inhibition [10]: < 40%
inhibition ([11]; concentration not given here): < 40%
SMILES: O=C(O)CNC(=O)Cc1ccc2oc(-c3ccc(NC(=S)Nc4ccc(-c5nc6cc(CC(=O)NCC(=O)O)ccc6o5)cc4F)c(F)c3)nc2c1
inhibition at 10 µM (HT-1080 [12]): 50 to 90%
inhibition at 10 µM (U-87 MG [13]): 50 to 90%
inhibition at 10 µM (U2OS [14]): < 50%
inhibition (HT-1080 [15]): Active

IC50 (Heparanase): 450 nM
IC50 (HT-1080 [1]; ht-1080): Not Active
IC50 (U-87 MG [2]; u-87mg atcc): Not Active
IC50 (U2OS [3]; u2os): Not Active
inhibition [7]: < 40%
inhibition [8]: < 40%
inhibition ([9]; concentration not given here): < 40%
inhibition [10]: < 40%
inhibition ([11]; concentration not given here): < 40%
SMILES: O=C(O)CNC(=O)Cc1ccc2oc(-c3ccc(NC(=O)Nc4ccc(-c5nc6cc(CC(=O)NCC(=O)O)ccc6o5)cc4F)c(F)c3)nc2c1
inhibition at 10 µM (HT-1080 [12]): 50 to 90%
inhibition at 10 µM (U-87 MG [13]): 50 to 90%
inhibition at 10 µM (U2OS [14]): < 50%

IC50 (Heparanase): 1400 nM
SMILES: O=C(O)Cc1ccc2oc(-c3ccc(NC(=S)Nc4ccc(-c5nc6cc(CC(=O)O)ccc6o5)cc4F)c(F)c3)nc2c1
